Among the data in the NIST ThermoML archive (doi:10.1016/j.fluid.2014.11.020) are activity coefficient values, retold here.

A short description of this data set: activity coefficient (dimensionless); of the first substance listed, at infinite dilution; xn = mol fraction of the nth substance listed. The settings on record: Liquid, Chromatography, x1 = 0.

± gives the expanded uncertainty stated by the source.

Regarding `CC1CCCCC1` [methylcyclohexane] + CCCCCCCCn1cc[n+](COCCC)c1C.O=S(=O)([N-]S(=O)(=O)C(F)(F)F)C(F)(F)F, the activity coefficient runs as follows: (323.15 K) 3.09 ± 0.21; (333.15 K) 2.91 ± 0.2; (343.15 K) 2.8 ± 0.19.

For `CC1CCCCC1` [methylcyclohexane] + CCCCCCCCn1cc[n+](COCCCOC[n+]2ccn(CCCCCCCC)c2C)c1C.N#C[N-]C#N.N#C[N-]C#N, the activity coefficient runs as follows: (323.15 K) 5.75 ± 0.39; (333.15 K) 5.07 ± 0.35; (343.15 K) 4.82 ± 0.33.

As for `CC1CCCCC1` [methylcyclohexane] + CCCCCCCCn1cc[n+](COCCCOC[n+]2ccn(CCCCCCCC)c2C)c1C.O=S(=O)([N-]S(=O)(=O)C(F)(F)F)C(F)(F)F.O=S(=O)([N-]S(=O)(=O)C(F)(F)F)C(F)(F)F, the activity coefficient (323.15 K) was 2.94 ± 0.2, the activity coefficient (333.15 K) stood at 2.71 ± 0.18 and the activity coefficient (343.15 K) turned out to be 2.73 ± 0.19.

As to `CC1CCCCC1` [methylcyclohexane] + CCCOC[n+]1ccc(N(C)C)cc1.O=S(=O)([N-]S(=O)(=O)C(F)(F)F)C(F)(F)F, the activity coefficient runs as follows: (323.15 K) 9.3 ± 0.63; (333.15 K) 8.99 ± 0.61; (343.15 K) 7.79 ± 0.53.

Take `CC1CCCCC1` [methylcyclohexane] + CCCOC[n+]1ccn(C)c1.F[B-](F)(F)F: the activity coefficient amounted to 76 ± 5.2 (323.15 K), 70.4 ± 4.8 (333.15 K) and 59.7 ± 4.1 (343.15 K).

For the compound `CC1CCCCC1` [methylcyclohexane] + CCCOC[n+]1ccn(C)c1.N#C[N-]C#N, the activity coefficient reads like this: (323.15 K) 44.3 ± 3; (333.15 K) 39.6 ± 2.7; (343.15 K) 35.6 ± 2.4.

Turning to `CC1CCCCC1` [methylcyclohexane] + CCCOC[n+]1ccn(C)c1.O=S(=O)([N-]S(=O)(=O)C(F)(F)F)C(F)(F)F, the activity coefficient reads like this: (323.15 K) 13 ± 0.89; (333.15 K) 12.9 ± 0.88; (343.15 K) 13 ± 0.89.

For the compound `CC1CCCCC1` [methylcyclohexane] + CCCOC[n+]1ccn(Cc2ccccc2)c1.N#C[N-]C#N, the activity coefficient stood at 21.3 ± 1.5 (323.15 K), 20.4 ± 1.4 (333.15 K) and 18.2 ± 1.2 (343.15 K).

On to `CC1CCCCC1` [methylcyclohexane] + CCCOC[n+]1ccn(Cc2ccccc2)c1.O=S(=O)([N-]S(=O)(=O)C(F)(F)F)C(F)(F)F, for which the activity coefficient reads like this: (323.15 K) 6.47 ± 0.44; (333.15 K) 6.14 ± 0.42; (343.15 K) 5.7 ± 0.39.

`CC1CCCCC1` [methylcyclohexane] + CN(C)c1cc[n+](COCCCOC[n+]2ccc(N(C)C)cc2)cc1.O=S(=O)([N-]S(=O)(=O)C(F)(F)F)C(F)(F)F.O=S(=O)([N-]S(=O)(=O)C(F)(F)F)C(F)(F)F: the activity coefficient (323.15 K) is 13.9 ± 0.95, the activity coefficient (333.15 K) was 12.7 ± 0.87 and the activity coefficient (343.15 K) stood at 11.8 ± 0.8.

In the case of `CC1CCCCC1` [methylcyclohexane] + Cn1cc[n+](COCCCOC[n+]2ccn(C)c2)c1.O=S(=O)([N-]S(=O)(=O)C(F)(F)F)C(F)(F)F.O=S(=O)([N-]S(=O)(=O)C(F)(F)F)C(F)(F)F, the activity coefficient by setting is: (323.15 K) 21 ± 1.4; (333.15 K) 18.3 ± 1.2.

On to `CC1CCCC1` [methylcyclopentane] + CCCCCCCCn1cc[n+](COCCC)c1C.N#C[N-]C#N, for which the activity coefficient is, setting by setting: (323.15 K) 4.37 ± 0.3; (333.15 K) 4.16 ± 0.28; (343.15 K) 4.16 ± 0.28.

In the case of `CC1CCCC1` [methylcyclopentane] + CCCCCCCCn1cc[n+](COCCC)c1C.O=S(=O)([N-]S(=O)(=O)C(F)(F)F)C(F)(F)F, the activity coefficient runs as follows: (323.15 K) 2.72 ± 0.19; (333.15 K) 2.41 ± 0.16; (343.15 K) 2.27 ± 0.15.

For the compound `CC1CCCC1` [methylcyclopentane] + CCCCCCCCn1cc[n+](COCCCOC[n+]2ccn(CCCCCCCC)c2C)c1C.N#C[N-]C#N.N#C[N-]C#N, the activity coefficient is, setting by setting: (323.15 K) 4.75 ± 0.32; (333.15 K) 4.7 ± 0.32; (343.15 K) 4.63 ± 0.32.

Regarding `CC1CCCC1` [methylcyclopentane] + CCCCCCCCn1cc[n+](COCCCOC[n+]2ccn(CCCCCCCC)c2C)c1C.O=S(=O)([N-]S(=O)(=O)C(F)(F)F)C(F)(F)F.O=S(=O)([N-]S(=O)(=O)C(F)(F)F)C(F)(F)F, the activity coefficient (323.15 K) stood at 2.52 ± 0.17, the activity coefficient (333.15 K) came to 2.23 ± 0.15 and the activity coefficient (343.15 K) came to 2.17 ± 0.15.

As for `CC1CCCC1` [methylcyclopentane] + CCCOC[n+]1ccc(N(C)C)cc1.O=S(=O)([N-]S(=O)(=O)C(F)(F)F)C(F)(F)F, the activity coefficient reads like this: (323.15 K) 7.35 ± 0.5; (333.15 K) 7.22 ± 0.49; (343.15 K) 6.1 ± 0.42.

As for `CC1CCCC1` [methylcyclopentane] + CCCOC[n+]1ccn(C)c1.N#C[N-]C#N, the activity coefficient came to 27.7 ± 1.9 (323.15 K) and 24.4 ± 1.7 (333.15 K).

As to `CC1CCCC1` [methylcyclopentane] + CCCOC[n+]1ccn(Cc2ccccc2)c1.N#C[N-]C#N, the activity coefficient runs as follows: (323.15 K) 15.7 ± 1.1; (333.15 K) 15.2 ± 1; (343.15 K) 13.5 ± 0.92.

In the case of `CC1CCCC1` [methylcyclopentane] + CCCOC[n+]1ccn(Cc2ccccc2)c1.O=S(=O)([N-]S(=O)(=O)C(F)(F)F)C(F)(F)F, the activity coefficient was determined as 5.48 ± 0.37 (323.15 K), 4.46 ± 0.3 (333.15 K) and 4.02 ± 0.27 (343.15 K).

With `CC1CCCC1` [methylcyclopentane] + CN(C)c1cc[n+](COCCCOC[n+]2ccc(N(C)C)cc2)cc1.O=S(=O)([N-]S(=O)(=O)C(F)(F)F)C(F)(F)F.O=S(=O)([N-]S(=O)(=O)C(F)(F)F)C(F)(F)F, the activity coefficient is, setting by setting: (323.15 K) 11 ± 0.75; (333.15 K) 9.51 ± 0.65; (343.15 K) 9 ± 0.61.

In the case of `CC1CCCC1` [methylcyclopentane] + Cn1cc[n+](COCCCOC[n+]2ccn(C)c2)c1.O=S(=O)([N-]S(=O)(=O)C(F)(F)F)C(F)(F)F.O=S(=O)([N-]S(=O)(=O)C(F)(F)F)C(F)(F)F, the activity coefficient (323.15 K) came out at 16.4 ± 1.1 and the activity coefficient (333.15 K) is 10.2 ± 0.7.

In the case of `C[N+](=O)[O-]` [nitromethane] + CCCCCCCCn1cc[n+](COCCC)c1C.N#C[N-]C#N, the activity coefficient is, setting by setting: (323.15 K) 0.68 ± 0.05; (333.15 K) 0.66 ± 0.05; (343.15 K) 0.63 ± 0.04.

As to `C[N+](=O)[O-]` [nitromethane] + CCCCCCCCn1cc[n+](COCCC)c1C.O=S(=O)([N-]S(=O)(=O)C(F)(F)F)C(F)(F)F, the activity coefficient by setting is: (323.15 K) 0.56 ± 0.04; (333.15 K) 0.52 ± 0.04; (343.15 K) 0.52 ± 0.04.

For `C[N+](=O)[O-]` [nitromethane] + CCCCCCCCn1cc[n+](COCCCOC[n+]2ccn(CCCCCCCC)c2C)c1C.N#C[N-]C#N.N#C[N-]C#N, the activity coefficient (323.15 K) was determined as 0.44 ± 0.04, the activity coefficient (333.15 K) was 0.43 ± 0.04 and the activity coefficient (343.15 K) was determined as 0.42 ± 0.04.

Take `C[N+](=O)[O-]` [nitromethane] + CCCCCCCCn1cc[n+](COCCCOC[n+]2ccn(CCCCCCCC)c2C)c1C.O=S(=O)([N-]S(=O)(=O)C(F)(F)F)C(F)(F)F.O=S(=O)([N-]S(=O)(=O)C(F)(F)F)C(F)(F)F: the activity coefficient (323.15 K) worked out at 0.31 ± 0.03, the activity coefficient (333.15 K) worked out at 0.29 ± 0.03 and the activity coefficient (343.15 K) came out at 0.47 ± 0.04.

`C[N+](=O)[O-]` [nitromethane] + CCCOC[n+]1ccc(N(C)C)cc1.O=S(=O)([N-]S(=O)(=O)C(F)(F)F)C(F)(F)F: the activity coefficient amounted to 0.54 ± 0.04 (323.15 K), 0.55 ± 0.04 (333.15 K) and 0.54 ± 0.04 (343.15 K).

Take `C[N+](=O)[O-]` [nitromethane] + CCCOC[n+]1ccn(C)c1.F[B-](F)(F)F: the activity coefficient was 0.65 ± 0.04 (323.15 K), 0.66 ± 0.05 (333.15 K) and 0.67 ± 0.05 (343.15 K).

As for `C[N+](=O)[O-]` [nitromethane] + CCCOC[n+]1ccn(C)c1.N#C[N-]C#N, the activity coefficient (323.15 K) stood at 0.69 ± 0.05, the activity coefficient (333.15 K) turned out to be 0.7 ± 0.05 and the activity coefficient (343.15 K) stood at 0.73 ± 0.05.

Take `C[N+](=O)[O-]` [nitromethane] + CCCOC[n+]1ccn(C)c1.O=S(=O)([N-]S(=O)(=O)C(F)(F)F)C(F)(F)F: the activity coefficient is 0.55 ± 0.04 (323.15 K), 0.53 ± 0.04 (333.15 K) and 0.53 ± 0.04 (343.15 K).

In the case of `C[N+](=O)[O-]` [nitromethane] + CCCOC[n+]1ccn(Cc2ccccc2)c1.F[B-](F)(F)F, the activity coefficient was 0.58 ± 0.04 (323.15 K), 0.57 ± 0.04 (333.15 K) and 0.58 ± 0.04 (343.15 K).

With `C[N+](=O)[O-]` [nitromethane] + CCCOC[n+]1ccn(Cc2ccccc2)c1.N#C[N-]C#N, the activity coefficient stood at 1.06 ± 0.07 (323.15 K), 0.71 ± 0.05 (333.15 K) and 0.72 ± 0.05 (343.15 K).

For `C[N+](=O)[O-]` [nitromethane] + CCCOC[n+]1ccn(Cc2ccccc2)c1.O=S(=O)([N-]S(=O)(=O)C(F)(F)F)C(F)(F)F, the activity coefficient by setting is: (323.15 K) 0.46 ± 0.04; (333.15 K) 0.4 ± 0.03; (343.15 K) 0.4 ± 0.03.

For the compound `C[N+](=O)[O-]` [nitromethane] + CN(C)c1cc[n+](COCCCOC[n+]2ccc(N(C)C)cc2)cc1.O=S(=O)([N-]S(=O)(=O)C(F)(F)F)C(F)(F)F.O=S(=O)([N-]S(=O)(=O)C(F)(F)F)C(F)(F)F, the activity coefficient reads like this: (323.15 K) 0.39 ± 0.03; (333.15 K) 0.39 ± 0.03; (343.15 K) 0.38 ± 0.03.

Regarding `C[N+](=O)[O-]` [nitromethane] + Cn1cc[n+](COCCCOC[n+]2ccn(C)c2)c1.N#C[N-]C#N.N#C[N-]C#N, the activity coefficient by setting is: (323.15 K) 0.56 ± 0.04; (333.15 K) 0.56 ± 0.04; (343.15 K) 0.57 ± 0.04.

As for `C[N+](=O)[O-]` [nitromethane] + Cn1cc[n+](COCCCOC[n+]2ccn(C)c2)c1.O=S(=O)([N-]S(=O)(=O)C(F)(F)F)C(F)(F)F.O=S(=O)([N-]S(=O)(=O)C(F)(F)F)C(F)(F)F, the activity coefficient worked out at 0.31 ± 0.03 (323.15 K), 0.31 ± 0.03 (333.15 K) and 0.29 ± 0.03 (343.15 K).

For `C[N+](=O)[O-]` [nitromethane] + N#C[N-]C#N.N#C[N-]C#N.c1ccc(Cn2cc[n+](COCCCOC[n+]3ccn(Cc4ccccc4)c3)c2)cc1, the activity coefficient worked out at 0.86 ± 0.06 (323.15 K), 0.85 ± 0.05 (333.15 K) and 0.87 ± 0.06 (343.15 K).
